Reference: patent publication US20260243776A1, “A METHOD FOR DETECTING PROTEIN TARGETS OF AN ENZYME USING A BIOTIN LIGASE” (Leibniz-Institut für Alternsforschung - …, priority 2022, published 2026)
Residues, ends and D or L forms follow the SMILES beside them. *: point of attachment. Cbz = O=C(OCc1ccccc1)*

What was measured:
proteasome = experiment: Proximity labeling (BioID) with PSMA4-miniTurbo, streptavidin enrichment and DIA mass spectrometry, with proteasome inhibition; assay type: cell-based, Homo sapiens
Method: For the “BioID” experiments, HEK293T lines were seeded at the density of approximately 1.6×10^4 cells/cm2 and incubated for 24 hours to allow cell attachment to the culture dish. The expression of BirA* or miniTurbo fusion proteins were induced by a single addition of tetracycline stock (solved in ethanol) exposing the cells to its final concentration of […] in total for 4 days. 2 hours (miniTurbo lines) or 24 hours (BirA* lines) prior to cell harvesting, 50 μM biotin was added to the culture media. For identification of proteasome substrates, PSMA4-miniTurbo or miniTurbo expressing cells were treated with 20 μM MG132 for 4 hours and/or 10 μM KB02-JQ1 for 12 hours. Upon treatment, cells were washed 3×times with PBS and harvested by trypsinization. For each sample, a pellet corresponding to 20 million cells was collected and snap-frozen in liquid nitrogen.
Cell pellets were thawed on ice were resuspended in 4.75 ml of BioID lysis buffer (50 mM Tris pH 7.5; 150 mM NaCl; 1 mM EDTA; 1 mM EGTA; 1% (v/v) Triton X-100; 1 mg/ml aprotinin; 0.5 mg/ml leupeptin; 250 U turbonuclease; 0.1% (w/v) SDS), followed by 1 hour incubation in the rotator mixer (STARLAB RM Multi-1) (15×rpm) at 4° C. to aid the lysis. Samples were then briefly sonicated in a Bioruptor Plus for 5 cycles (30 s ON/30 s OFF) at high setting and afterwards centrifuged at 20817×g, for 30 minutes at 4° C. to remove any debris.
Streptavidin coated Sepharose beads were acetylated by two successive treatments with 10 mM Sulfo-NHS-Acetate for 30 minutes at room temperature. The reaction was then quenched with 1 M Tris pH 7.5 (1:10 v/v) and then the beads were washed with 1×PBS and centrifuged at 2000×g for 1 minute at room temperature. This washing was performed 3 times in total. Cleared lysates were transferred to new tubes, 50 μl of acetylated beads added, and samples were incubated for 3 hours on the rotator (15×rpm) at 4° C. This was followed by centrifugation at 2000×g for 5 minutes at 4° C. and removal of 4.5 ml of the supernatant from each sample. […]

[1] = tested on: proteasome chymotrypsin-like activity; experiment: Proteasome activity assay (LLVY-AMC cleavage) on cell lysates; assay type: cell-based, Homo sapiens; conditions: lysates of HEK293T lines expressing BirA* fusion proteins or BirA* control; 24 hours with vs without tetracycline
Method: Proteasome activity assay: The proteasome activity assay (PAA) was performed using the 20S proteasome activity assay kit (Millipore, APT280) following the manufacturer instructions. In short, cell pellets were thawed in ice-cold lysis buffer (50 mM HEPES pH 7.5; 5 mM EDTA; 150 mM NaCl; 1% (v/v) Triton X-100; 2 mM ATP) and left on ice for 30 minutes with short vortex steps (VWR international, VWR/444-1372) every 10 minutes. Samples were centrifuged at 20817×g, for 15 minutes at 4° C. to remove any debris. For protein amount estimation the EZQ Protein Quantitation Kit (Invitrogen, R33200) was used. 50 μg of protein extract were incubated with fluorophore-linked peptide substrate (LLVY-7-amino-4-methylcoumarin, AMC) for 60 minutes at 37° C. Proteasome activity was measured by quantification of fluorescent units from cleaved AMC at 380/460 nm using a microplate reader m1000 (Tecan).

SMILES: CC(C)C[C@@H](C=O)NC(=O)[C@H](CC(C)C)NC(=O)[C@H](CC(C)C)NC(=O)OCc1ccccc1 [MG132] (Cbz-Leu-Leu-Leu-aldehyde)
- impact on the biotinylated proteins quantified by mass spectrometry (principal component analysis) (proteasome; HEK293T PSMA4-miniTurbo, 20 μM MG132 4 hours): clear impact
- number of proteins enriched relative to miniTurbo control only in presence of MG132 (potential proteasome substrates) (proteasome; HEK293T PSMA4-miniTurbo, 20 μM MG132 4 hours, log 2 fold change>1 and Q value<0.05): 296 proteins
- enrichment of proteasome activators and ubiquitin in streptavidin pull downs, MG132-treated versus control cells (proteasome; HEK293T cells expressing PSMA4-miniTurbo, 20 μM MG132 for 4 hours, biotin 2 hours): prominent enrichment of proteasome activators and ubiquitin

SMILES: CN(C)[C@@H]1C(O)=C(C(N)=O)C(=O)[C@@]2(O)C(O)=C3C(=O)c4c(O)cccc4[C@@](C)(O)[C@H]3C[C@@H]12 [tetracycline]
- reduction of proteasome activity following addition of tetracycline [1]: 15-20%
